Test results: US20240383900A1, “SUBSTITUTED PYRAZOLO [1,5-A]PYRIMIDINE-7-AMINE COMPOUNDS AS CDK INHIBITORS AND THEIR THERAPEUTIC USE” (Carrick Therapeutics Limited, priority 2021, published 2024)
Like-named read-outs stand apart in the source and are kept apart here.

Experiments:
A673 cells [1] = assay: Cytotoxicity in A673 cells (Cell Titer Glo viability); format: cell-based; settings: for Ratio of Biochemical Potency:Cellular Potency: CDK12 IC50 / A673 IC50; for IC50: Homo sapiens
Outline: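 Cells plated at 1.2×10^5 per well in DMEM+10% FBS, 24 h, then compound series ± MLN4924 (30 nM final) in 0.1% DMSO for 72 h. Viability by Cell Titer Glo luminescence, normalised to vehicle (100%) and 0.1% Triton x-100 (0%); MLN4924 curves normalised to MLN4924-treated controls.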

A673 cells [2] = assay: A673 cytotoxic potency shift in the presence of MLN4924 (cyclin K degrader activity); format: cell-based; settings: for Cyclin K Degrader Activity (A673 potency shift + MLN4924): 30 nM MLN4924, 72 hours; for Change of cytotoxic potency in the presence of MLN4924: 72 hours, presence and absence of 30 nM MLN4924
Human CDK12 wt/CycK = Human CDK12 wt/CycK (Homo sapiens (Human), UniProt Q9NYV4); assay: Radiometric protein kinase assay (33PanQinase Activity Assay), CDK12; format: biochemical; settings: for CDK7/CDK12: ratio of CDK7 IC50 to CDK12 IC50, greater than 1 indicates selectivity for CDK12
Outline: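 Radiometric 33P assay: ATP, test compound (in 10% DMSO) and premixed substrate/enzyme incubated 60 min at 30 °C, stopped with 2% H3PO4. 33Pi incorporation counted by scintillation; least-squares curve fit.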

Cyclin K = Cyclin K (Homo sapiens (Human), UniProt O75909); assay: Western blotting analysis of Cyclin K depletion in cell culture; format: cell-based; settings: A673 cells, 1 μM test compound, 2 hours, absence and presence of 10 μM MLN4924
Experimental: A673 cells were incubated for 2 hours with of 1 μM compound in presence or in absence of 10 μM of the NAE (NEDD8 activating enzyme) inhibitor MLN4924 (Cell Signalling Technologies). Cells were washed 2× with cold Phosphate Buffered Saline (PBS, Sigma Aldrich), followed by the addition of lysis buffer for 15 minutes on ice before harvesting and centrifugation.
Protein content in the cell lysate was assessed by BCA assay (Thermo Fisher). Samples were then prepared with 4× Laemmlli Buffer (Bio-Rad) and heated to 95° C. for 5 minutes. Each sample was loaded onto a Mini-PROTEAN TGX Stain Free Gel (Bio-Rad) at 50 μg protein/well. SDS-PAGE was performed and then protein was transferred onto a PVDF membrane using a Trans-Blot® Turbo™ Midi PVDF Transfer Pack (Bio-Rad. Membranes were blocked in TBS-T (Invitrogen), 5% (w/v) milk powder (Marvel) overnight at 4° C.
Membranes were incubated with anti-CCNK antibody (rabbit) primary antibody (Abcam) and anti-GAPDH antibody (rabbit) in TBS-T for 2 hours. Membranes were then washed three times with TBS-T, before incubation secondary goat anti-rabbit HRP antibody (Cell Signalling Technologies) followed by 3× washing in TBS-T. Blots were imaged using a Chemidoc imager (Bio-Rad). Cyclin K depletion was measured as the observable drop in band intensity in compound treated samples relative to proteasome-inhibitor treated samples.
Cyclin K degradation was evaluated by Western blotting for cyclin K in A673 cells exposed to 1 μM test compound for 2 hours in the absence and presence of 10 μM MLN4924 (to inhibit proteosome activity).

Human CDK7/CycH/MAT1 = Human CDK7/CycH/MAT1 (Homo sapiens (Human), UniProt P50613); assay: Radiometric protein kinase assay (33PanQinase Activity Assay), CDK7; format: biochemical; settings: ATP 3 μM
[3] = A673, read-out: Cellular Potency IC50 (nM) (in A673 cells)
[4] = A673 cells, 72 hours, read-out: A673 IC50
[5] = ATP 0.3 μM, read-out: CDK12 IC50
[6] = read-out: CKD12 Biochemical Potency IC50

Human CDK12 wt/CycK, sequence (Q9NYV4 whole entry): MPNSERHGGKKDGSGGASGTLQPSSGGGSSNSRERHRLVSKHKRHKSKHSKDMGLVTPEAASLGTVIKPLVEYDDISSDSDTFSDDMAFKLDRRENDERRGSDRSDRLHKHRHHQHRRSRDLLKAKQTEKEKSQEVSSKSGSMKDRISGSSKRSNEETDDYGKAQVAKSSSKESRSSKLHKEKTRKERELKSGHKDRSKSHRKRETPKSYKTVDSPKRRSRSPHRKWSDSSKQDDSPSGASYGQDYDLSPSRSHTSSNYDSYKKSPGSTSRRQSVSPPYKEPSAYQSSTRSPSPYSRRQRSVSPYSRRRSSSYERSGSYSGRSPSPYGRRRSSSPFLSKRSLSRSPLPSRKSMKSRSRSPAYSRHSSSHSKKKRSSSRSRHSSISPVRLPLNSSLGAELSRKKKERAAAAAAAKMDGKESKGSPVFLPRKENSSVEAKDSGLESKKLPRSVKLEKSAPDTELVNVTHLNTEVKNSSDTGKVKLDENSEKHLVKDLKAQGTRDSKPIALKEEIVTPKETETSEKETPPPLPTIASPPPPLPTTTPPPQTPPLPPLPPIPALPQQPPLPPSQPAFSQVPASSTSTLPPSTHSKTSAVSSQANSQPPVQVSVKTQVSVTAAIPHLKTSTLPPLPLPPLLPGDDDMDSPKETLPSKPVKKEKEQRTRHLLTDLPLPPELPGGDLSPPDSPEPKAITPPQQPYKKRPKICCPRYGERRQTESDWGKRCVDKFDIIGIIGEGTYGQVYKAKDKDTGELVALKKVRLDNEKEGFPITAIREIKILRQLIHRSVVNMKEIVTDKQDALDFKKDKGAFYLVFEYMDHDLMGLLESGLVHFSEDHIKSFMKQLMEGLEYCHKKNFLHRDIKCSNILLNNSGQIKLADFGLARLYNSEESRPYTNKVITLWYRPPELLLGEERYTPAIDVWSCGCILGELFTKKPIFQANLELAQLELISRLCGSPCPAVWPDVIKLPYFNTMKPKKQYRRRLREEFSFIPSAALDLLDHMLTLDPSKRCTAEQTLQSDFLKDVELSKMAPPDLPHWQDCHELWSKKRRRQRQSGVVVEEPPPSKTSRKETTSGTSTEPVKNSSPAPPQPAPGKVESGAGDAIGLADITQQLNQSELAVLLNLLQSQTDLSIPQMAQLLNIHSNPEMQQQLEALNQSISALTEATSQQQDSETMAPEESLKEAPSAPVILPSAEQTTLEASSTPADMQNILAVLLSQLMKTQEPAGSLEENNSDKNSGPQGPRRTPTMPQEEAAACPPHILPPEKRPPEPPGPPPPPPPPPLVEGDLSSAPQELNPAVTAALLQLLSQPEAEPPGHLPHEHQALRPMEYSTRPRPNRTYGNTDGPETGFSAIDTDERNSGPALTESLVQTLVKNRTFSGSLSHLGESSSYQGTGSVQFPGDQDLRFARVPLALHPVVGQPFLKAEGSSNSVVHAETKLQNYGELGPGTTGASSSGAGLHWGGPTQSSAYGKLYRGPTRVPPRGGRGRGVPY
Human CDK12 wt/CycK, sequence (O75909 whole entry partner): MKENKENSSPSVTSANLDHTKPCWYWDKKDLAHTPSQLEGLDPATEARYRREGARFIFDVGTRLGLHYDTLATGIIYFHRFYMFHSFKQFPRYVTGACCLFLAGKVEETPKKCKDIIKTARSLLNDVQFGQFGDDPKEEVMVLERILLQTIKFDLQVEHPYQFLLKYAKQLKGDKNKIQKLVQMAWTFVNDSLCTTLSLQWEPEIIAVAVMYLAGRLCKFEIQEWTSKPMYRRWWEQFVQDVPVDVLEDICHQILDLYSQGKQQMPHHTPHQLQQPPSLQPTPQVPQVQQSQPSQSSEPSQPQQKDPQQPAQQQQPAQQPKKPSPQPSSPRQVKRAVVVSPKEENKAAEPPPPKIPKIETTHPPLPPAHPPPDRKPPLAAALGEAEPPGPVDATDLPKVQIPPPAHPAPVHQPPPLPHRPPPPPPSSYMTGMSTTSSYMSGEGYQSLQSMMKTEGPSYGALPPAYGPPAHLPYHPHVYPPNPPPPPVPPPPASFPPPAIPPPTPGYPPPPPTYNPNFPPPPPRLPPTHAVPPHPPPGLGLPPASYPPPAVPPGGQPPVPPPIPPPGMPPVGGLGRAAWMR
Human CDK7/CycH/MAT1, sequence (P50613 whole entry): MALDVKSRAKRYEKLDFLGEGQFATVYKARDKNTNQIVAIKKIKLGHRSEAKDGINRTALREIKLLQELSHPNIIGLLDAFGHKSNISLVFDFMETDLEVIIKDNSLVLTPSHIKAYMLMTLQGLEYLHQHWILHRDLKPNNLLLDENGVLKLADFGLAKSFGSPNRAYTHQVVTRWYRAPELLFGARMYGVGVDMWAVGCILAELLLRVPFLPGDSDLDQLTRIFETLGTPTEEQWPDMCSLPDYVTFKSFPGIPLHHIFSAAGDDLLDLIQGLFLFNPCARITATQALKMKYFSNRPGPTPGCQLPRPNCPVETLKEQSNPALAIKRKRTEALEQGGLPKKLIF
Human CDK7/CycH/MAT1, sequence (P51946 whole entry partner): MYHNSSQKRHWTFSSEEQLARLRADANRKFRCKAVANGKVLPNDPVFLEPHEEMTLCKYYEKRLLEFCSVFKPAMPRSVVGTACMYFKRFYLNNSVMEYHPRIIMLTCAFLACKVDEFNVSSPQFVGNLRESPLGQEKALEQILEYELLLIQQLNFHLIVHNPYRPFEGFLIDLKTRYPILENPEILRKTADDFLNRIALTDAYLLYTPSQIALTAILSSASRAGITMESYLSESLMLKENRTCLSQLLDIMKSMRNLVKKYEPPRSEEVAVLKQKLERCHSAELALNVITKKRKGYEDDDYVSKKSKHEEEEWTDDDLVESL
Human CDK7/CycH/MAT1, sequence (P51948 whole entry partner): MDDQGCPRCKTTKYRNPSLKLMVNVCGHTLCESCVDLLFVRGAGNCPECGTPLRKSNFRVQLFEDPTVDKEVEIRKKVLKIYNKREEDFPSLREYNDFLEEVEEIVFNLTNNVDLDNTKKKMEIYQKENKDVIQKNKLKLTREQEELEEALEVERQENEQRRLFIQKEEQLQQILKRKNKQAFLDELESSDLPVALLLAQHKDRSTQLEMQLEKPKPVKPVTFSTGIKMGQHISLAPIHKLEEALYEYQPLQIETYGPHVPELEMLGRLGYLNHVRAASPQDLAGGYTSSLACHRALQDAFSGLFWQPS

Q: Which results are given for `CCc1cnn2c(NCc3ccc(-c4ccccn4)cc3)cc(NC[C@H]3CCNC[C@@H]3O)nc12` [PPA-005, (3R,4R)-4-(((3-ethyl-7-((4-(pyridin-2-yl)benzyl)amino)pyrazolo[1,5-a]pyrimidin-5-yl)amino)methyl)piperidin-3-ol]?
A: Ratio of Biochemical Potency:Cellular Potency (A673 cells [1]): 30.91; IC50 (A673 cells [1]; [3]): 1.1 nM; IC50 (A673 cells [1]; [4]): 1.1 nM; Cyclin K Degrader Activity (A673 potency shift + MLN4924) (A673 cells [2]): ++ (>2 and ≤5 fold change.); Change of cytotoxic potency in the presence of MLN4924 (A673 cells [2]): a significant decrease in cytotoxic potency; IC50 (Human CDK12 wt/CycK; [5]): 34 nM; CDK7/CDK12 (Human CDK12 wt/CycK): 3.3; IC50 (Human CDK12 wt/CycK; [6]): 34 nM; Cyclin K degradation by Western blotting (Cyclin K): found to degrade Cyclin K; IC50 (Human CDK7/CycH/MAT1): 112 nM

Q: `O[C@H]1CNCC[C@@H]1CNc1cc(NCc2ccc(-c3ccccn3)cc2)n2ncc(C3CC3)c2n1` [PPA-006] was tested. Which “Ratio of Biochemical Potency:Cellular Potency” value (A673 cells [1]) did it give?
A: 14.57

Q: What about the IC50 (A673 cells [1]; [3]) of the same compound?
A: 3.5 nM

Q: What about the IC50 (A673 cells [1]; [4]) of the same compound?
A: 3.5 nM

Q: What about the “Cyclin K Degrader Activity (A673 potency shift + MLN4924)” value (A673 cells [2]) of the same compound?
A: +++ (>5 fold change.)

Q: What about the “Change of cytotoxic potency in the presence of MLN4924” value (A673 cells [2]) of the same compound?
A: a significant decrease in cytotoxic potency

Q: What about the IC50 (Human CDK12 wt/CycK; [5]) of the same compound?
A: 51 nM

Q: And the CDK7/CDK12 (Human CDK12 wt/CycK)?
A: 6.1

Q: What about the IC50 (Human CDK12 wt/CycK; [6]) of the same compound?
A: 51 nM

Q: What about the “Cyclin K degradation by Western blotting” value (Cyclin K) of the same compound?
A: found to degrade Cyclin K

Q: And the IC50 (Human CDK7/CycH/MAT1)?
A: 312 nM
